From patent publication US6776996B2, “Pesticidal matrices” (priority 1997, dated 2004)

Tested on: H. virescens
Assay: Field evaluation against tobacco budworms on tobacco in North Carolina
Assay type: in vivo
Details: 0.75 lb of ai/acre
Method: A field evaluation is conducted on tobacco grown near Clayton, N.C. A wettable powder composition of this invention (composition 46) at 2×10^11, 5×10^11, and 8×10^11 bodies/acre, Bacillus thuringiensis (DIPEL® 2X, Abbott Laboratories) at 1.0 lb wettable powder (WP)/acre, and acephate (ORTHENE® 75SP, available from Valent USA, Walnut Creek, Calif.) at 0.75 lb active ingredient (ai)/acre are compared for efficacy against H. virescens. Biological materials are suspended in water containing an insect gustatory stimulant (PHEAST® available from […], Fresno, Calif.); aqueous dilutions of acephate contained no PHEAST®. Treatments and untreated check are replicated four times (small plots) in a randomized complete block design. By using fine-hair brushes, 1- to 2-day old laboratory-reared H. virescens are placed on the underside of leaves in each plot. Natural infestation of H. virescens also occurred at the test site. Treatments are applied to tobacco about 2 hours before each artificial larval infestation on days 1 and 8. Treatments are applied with a tractor-mounted, CO2-pressurized boom sprayer which is calibrated to deliver 25 gallons/acre through a single D2-33 nozzle centered over each tobacco row. Boom pressure during application is 60 lb/in^2.
At 2 and 5 days after first application and 5 and 9 days after second application, live H. virescens are counted on 20 plants in each plot. Additionally, visual estimate of leaf damage caused by larval feeding is made 14 days after the second application using the rating scale shown below.

## COP(=O)(NC(C)=O)SC (centres unmarked) [Acephate, acephate]
Day of Test 3
  Mean Number of Live Larvae per 20 Plants: 6.0
Day of Test 8
  Mean Number of Live Larvae per 20 Plants: 5.8
Day of Test 13
  Mean Number of Live Larvae per 20 Plants: 1.2
Day of Test 17
  Mean Number of Live Larvae per 20 Plants: 0.8
Rating scale 0 (No Damage) to 4 (Severe Damage)
  Mean Plant Injury on Day 22 of Test: 0.2
